Measurements reported in article PMC6792352, “Limited Chemical Structural Diversity Found to Modulate Thyroid Hormone Receptor in the Tox21 Chemical Library” (Environmental Health Perspectives, 2019).
Structures can show the parent of a compound that is named as a salt. Residues, ends and D or L forms follow the SMILES beside them.

Assay: in vitro
Conditions: rat, gh3-tre-luc cells, AC50 (uM) modified / 1000

Point of comparison: NC(=O)Cn1c(=O)cc(CCN2CCN(c3nccc4sccc34)CC2)c2ccc(F)cc21 [Trelanserin], CC50 at 24 h 52.8 µM. Against it:
- CN(C)Cc1ccccc1 [N,N-Dimethylbenzylamine] — not separable, > 50 µM
- Cc1cc(CC(=O)O)n(C)c1C(=O)c1ccc(Cl)cc1 [Sodium zomepirac] — higher, > 90 µM
- CCCCCCCCCCCCCCN(CCO)CCO [2,2'-(Tetradecylimino)diethanol] — 2.3-fold lower, 23.3 µM
- CO[C@@H]1[C@H](OC(=O)NC(=O)CCl)CC[C@]2(CO2)[C@H]1[C@@]1(C)O[C@@H]1CC=C(C)C [o-(Chloroacetylcarbamoyl)fumagillol] — not separable, > 30 µM
- CCOc1ccc(N)c([N+](=O)[O-])c1 [4-Ethoxy-2-nitroaniline] — higher, > 90 µM
- N=C1N=C(N)c2ccccc21 [1H-Isoindole-1,3(2H)-diimine] — within 1.5-fold, 35.8 µM
- [O-][N+](=Nc1ccccc1)c1ccccc1 [Azoxybenzene] — higher, > 90 µM
- Cc1cc(C)c(O)c(C)c1 [2,4,6-Trimethylphenol] — higher, > 90 µM
- C=CC(C)(CCC=C(C)C)OC=O (stereo not drawn) [Linalyl formate] — higher, > 90 µM
- O=C(O)CCS [3-Mercaptopropanoic acid] — higher, > 90 µM
- CN1C[C@@H]2c3ccccc3Oc3ccc(Cl)cc3[C@H]2C1 (racemic) [Asenapine] — 1.6-fold lower, 33.1 µM
- OC(CCN1CCCC1)(c1ccccc1)C1CCCCC1 (stereo not drawn) [Procyclidine hydrochloride] — 5-fold lower, 10.6 µM
- NC(=O)C(=O)N/N=C/c1ccc([N+](=O)[O-])o1 [Nifuraldezone] — 2.1-fold lower, 24.8 µM
- COC(=O)C(C)O (stereo not drawn) [Methyl 2-hydroxypropanoate] — higher, > 90 µM
- C[C@@H]1CN(c2c(F)c(F)c3c(=O)c(C(=O)O)cn(C4CC4)c3c2F)C[C@H](C)N1 [Orbifloxacin] — not separable, > 50 µM
- COc1ccccc1NC(=O)c1cc2ccccc2cc1O [3-Hydroxy-2-naphthoic o-anisidide] — higher, > 90 µM
- CN(C)CCc1c[nH]c2cccc(O)c12 [Psilocin] — higher, > 90 µM
- O=C(O)CC(O)C(=O)O (stereo not drawn) [Malic acid] — higher, > 90 µM
- CCc1cc(C2=C(C(=O)O)N(c3ccccc3C(F)(F)F)S(=O)(=O)c3ccccc32)cc2c1OCO2 [Fandosentan potassium salt] — 6.4-fold lower, 8.29 µM
- CCOC(=O)Cc1cccc2ccccc12 [Ethyl 1-naphthaleneacetate] — higher, > 90 µM
- CC(C)[N+](C)(CCC(C(N)=O)(c1ccccc1)c1ccccc1)C(C)C [Isopropamide] — not separable, > 20 µM
- CC[C@H]1OC(=O)C[C@@H](O)[C@H](C)[C@@H](O[C@@H]2O[C@H](C)[C@@H](O[C@H]3C[C@@](C)(O)[C@@H](O)[C@H](C)O3)[C@H](N(C)C)[C@H]2O)[C@@H](CC=O)C[C@@H](C)C(=O)/C=C/C(C)=C/[C@@H]1CO[C@@H]1O[C@H](C)[C@@H](O)[C@@H](OC)[C@H]1OC [Tylosin tartrate] — not separable, > 50 µM
- CC(=O)OC(C)OC(C)=O [1,1-Ethanediol diacetate] — higher, > 90 µM
- CC(=O)CCC(C)=O [2,5-Hexanedione] — higher, > 90 µM
- O=S(=O)(O)CCS [Sodium 2-mercaptoethanesulfonate] — higher, > 90 µM
- CC(Oc1cccc(Cl)c1)C(=O)O (stereo not drawn) [Cloprop] — higher, > 90 µM
- C=CC(C)(CCC=C(C)C)OC(=O)CC(C)C (stereo not drawn) [Linalyl isovalerate] — higher, > 90 µM
- COC(C)(C)CCC[C@H](C)C/C=C/C(C)=C/C(=O)OC(C)C [S-Methoprene] — within 1.5-fold, 70.9 µM
- CN(C)C(=O)Oc1ccc[n+](C)c1 [Pyridostigmine bromide] — not separable, > 50 µM
- C[C@@]12C(=O)OC(=O)[C@]1(C)[C@H]1CC[C@@H]2O1 [Cantharidin] — 26-fold lower, 2.01 µM
- NS(=O)(=O)c1cc2c(cc1Cl)NC(C1CC3C=CC1C3)NS2(=O)=O (stereo not drawn) [Cyclothiazide] — not separable, > 50 µM
- CC(C)(C)c1ccc(C=O)cc1 [4-tert-Butylbenzaldehyde] — higher, > 90 µM
- CC(=O)O[C@H]1C[C@@]2(C)[C@@H](C[C@@H](O)[C@H]3[C@@]4(C)CC[C@@H](O)[C@@H](C)[C@@H]4CC[C@@]32C)/C1=C(\CCC=C(C)C)C(=O)O [Fusidate sodium] — not separable, > 50 µM
- O=C(NC1CCN(CCc2c[nH]c3ccccc23)CC1)c1ccccc1 [Indoramin hydrochloride] — 2.4-fold lower, 22.2 µM
- NNc1nc(-c2ccc([N+](=O)[O-])cc2)cs1 [2-Hydrazino-4-(4-nitrophenyl)thiazole] — within 1.5-fold, 58.8 µM
- CC(=O)O[C@@H]1C(=O)O[C@H]2[C@@H]1OC(=O)[C@@H]2OC(C)=O [Aceglatone] — not separable, > 50 µM
- CCCC[N+](=O)[O-] [1-Nitrobutane] — higher, > 90 µM
- COc1nc(C)nc(NC(=O)NS(=O)(=O)c2ccccc2Cl)n1 [Chlorsulfuron] — higher, > 90 µM
- CCC(C)(C)CC [Pentane,3,3-dimethyl-] — higher, > 100 µM
- O=C1OC(c2ccc(O)c(S(=O)(=O)O)c2)(c2ccc(O)c(S(=O)(=O)O)c2)c2c(Br)c(Br)c(Br)c(Br)c21 [Sulfobromophthalein] — not separable, > 50 µM
- CCCCCCCCCCC(CO)CCCCCCCC (stereo not drawn) [2-Octyl-1-dodecanol] — higher, > 90 µM
- CO[Si](CCCNCCN)(OC)OC [N-[3-(Trimethoxysilyl)propyl]ethane-1,2-diamine] — higher, > 90 µM
- CCCCOC(=O)CCCCC(=O)OCCCC [Dibutyl adipate] — higher, > 90 µM
- CC1(C)[C@H](C=C(Cl)Cl)[C@H]1C(=O)O[C@H](C#N)c1cccc(Oc2ccccc2)c1 [Cypermethrin] — not separable, > 50 µM
- CCCCC(CC)CN1CN(CC(CC)CCCC)CC(C)(N)C1 (stereo not drawn) [Hexetidine] — not separable, > 20 µM
- c1ccc2c(CCC3CCNCC3)c[nH]c2c1 [Indalpine hydrochloride] — 2.8-fold lower, 18.8 µM
- NCC[C@H](O)C(=O)N[C@@H]1C[C@H](N)[C@@H](O[C@H]2O[C@H](CN)[C@@H](O)[C@H](O)[C@H]2O)[C@H](O)[C@H]1O[C@H]1O[C@H](CO)[C@@H](O)[C@H](N)[C@H]1O [Amikacin] — not separable, > 50 µM
- COC(=O)[C@H](Cc1ccccc1)NC(=O)[C@@H](N)CC(=O)O [Aspartame] (H-Asp-Phe-OMe) — higher, > 90 µM
- COS(C)(=O)=O [Methyl methanesulfonate] — higher, > 100 µM
- O=S(=O)(c1ccc(Cl)cc1)c1ccc(Cl)cc1 [4,4'-Dichlorodiphenyl sulfone] — higher, > 90 µM
- Clc1ccc(C(Cl)(Cl)Cl)cc1 [4-Chlorobenzotrichloride] — higher, > 90 µM
- CC1=CCC2C(C1)C2(C)C (stereo not drawn) [3-Carene] — higher, > 90 µM
- C=C1/C(=C\C=C2/CCC[C@]3(C)[C@@H]([C@H](C)CCCC(C)(C)O)CC[C@@H]23)C[C@@H](O)C[C@@H]1O [Calcitriol] — 2.6-fold lower, 20.1 µM
- CCCCC(CC)COC(=O)/C=C\C(=O)OCC(CC)CCCC (stereo not drawn) [Bis(2-ethylhexyl) maleate] — higher, > 90 µM
- C[C@]12CC[C@@H]3c4ccc(OS(=O)(=O)O)cc4CC[C@H]3[C@@H]1CCC2=O [Estropipate] — not separable, > 50 µM
- O=C(O)c1ccccc1C(=O)O [Phthalic acid] — higher, > 90 µM
- CCCCN(CC)C(=O)SCCC [Pebulate] — higher, > 90 µM
- O=C(O)CCCc1ccccc1 [Sodium 4-phenylbutyrate] — not separable, > 50 µM
- CCCCCCCC(=O)OCC(O)CO (stereo not drawn) [Glyceryl monooctanoate] — higher, > 90 µM
- CC(C)CCCCCOC(=O)COc1ccc(Cl)cc1Cl [2,4-D isooctyl ester] — higher, > 90 µM
- O=C1CCC(C2CCCCC2)CC1 [4-Cyclohexylcyclohexanone] — higher, > 90 µM

Same assay, conditions: rat, gh3-tre-luc cells, AC50 (uM) modified / 1000, Tox21_110001=Tox21_112851; viability, 1 nM T3 present, 24 h

In the case of COc1ccc(OC)c(C[C@H](C)N)c1 [(2S)-1-(2,5-Dimethoxyphenyl)propan-2-amine hydrogen chloride (1:1)], the CC50 at 24 h is reported as greater than 100 µM.

Same assay, conditions: rat, gh3-tre-luc cells, AC50 (uM) modified / 1000, Tox21_110001=Tox21_113116; viability, 1 nM T3 present, 24 h

Work on C[C@]12CC[C@H]3[C@@H](CCC4=CC(=O)CC[C@@]43C)[C@@H]1CC[C@@H]2OC(=O)CCc1ccccc1 [Testosterone 17-phenylpropionate] yielded a CC50 at 24 h greater than 90 µM.

Same assay, conditions: rat, gh3-tre-luc cells, AC50 (uM) modified / 1000, Tox21_110001=Tox21_200928; viability, 1 nM T3 present, 24 h

OC[P+](CO)(CO)CO [Tetrakis(hydroxymethyl)phosphonium sulfate] showed a CC50 at 24 h greater than 90 µM.

Same assay, conditions: rat, gh3-tre-luc cells, AC50 (uM) modified / 1000, Tox21_110001=Tox21_201682; viability, 1 nM T3 present, 24 h

In the case of NC(=S)Nc1ccccc1 [1-Phenyl-2-thiourea], the CC50 at 24 h is reported as greater than 90 µM.

Same assay, conditions: rat, gh3-tre-luc cells, AC50 (uM) modified / 1000, Tox21_110001=Tox21_202229; viability, 1 nM T3 present, 24 h

With [Cl][Cd][Cl] [Cadmium chloride] the CC50 at 24 h was 26.6 µM.

Same assay, conditions: rat, gh3-tre-luc cells, AC50 (uM) modified / 1000, Tox21_110001=Tox21_202383; viability, 1 nM T3 present, 24 h

Work on CCOP(=S)(OCC)Oc1nc(Cl)c(Cl)cc1Cl [Chlorpyrifos] yielded a CC50 at 24 h of 53.7 µM.

Same assay, conditions: rat, gh3-tre-luc cells, AC50 (uM) modified / 1000, Tox21_110001=Tox21_300148; viability, 1 nM T3 present, 24 h

CCOP(=S)(OCC)Oc1nc(Cl)c(Cl)cc1Cl [Chlorpyrifos] gave a CC50 at 24 h of 81.6 µM.

Same assay, conditions: rat, gh3-tre-luc cells, AC50 (uM) modified / 1000, Tox21_110001=Tox21_300396; viability, 1 nM T3 present, 24 h

O=S(=O)(O)C(F)(F)C(F)(F)C(F)(F)C(F)(F)C(F)(F)C(F)(F)F [Potassium perfluorohexanesulfonate] showed a CC50 at 24 h greater than 90 µM.

Same assay, conditions: rat, gh3-tre-luc cells, AC50 (uM) modified / 1000, Tox21_110001=Tox21_301356; viability, 1 nM T3 present, 24 h

For CCSCc1ccccc1OC(=O)NC [Ethiofencarb], the CC50 at 24 h was greater than 90 µM.

Same assay, conditions: rat, gh3-tre-luc cells, AC50 (uM) modified / 1000, Tox21_110001=Tox21_302196; viability, 1 nM T3 present, 24 h

Work on CC(C)C(C)(N)C#N (stereo not drawn) [2-Amino-2,3-dimethylbutanenitrile] yielded a CC50 at 24 h greater than 90 µM.

Same assay, conditions: rat, gh3-tre-luc cells, AC50 (uM) modified / 1000, Tox21_110001=Tox21_302297; viability, 1 nM T3 present, 24 h

Molecule COc1ccccc1OC [1,2-Dimethoxybenzene] has a CC50 at 24 h greater than 90 µM.

Same assay, conditions: rat, gh3-tre-luc cells, AC50 (uM) modified / 1000, Tox21_110001=Tox21_303000; viability, 1 nM T3 present, 24 h

With [Cl][Cd][Cl] [Cadmium chloride] the CC50 at 24 h was 32.6 µM.

Same assay, conditions: rat, gh3-tre-luc cells, AC50 (uM) modified / 1000, Tox21_110001=Tox21_400070; viability, 1 nM T3 present, 24 h

Molecule COc1cc(OC)c(OC)cc1C=O [2,4,5-Trimethoxybenzaldehyde] has a CC50 at 24 h greater than 90 µM.
